Like-named read-outs stand apart in the source and are kept apart here.
Columns and labels:
HSV-1 [1] = assay: In vitro activity, HSV-1 infected Vero cells; format: cell-based
Experimental: (§1) The in vitro activity of the new compounds was measured as described in WO2017/174640 and in WO2019/068817.

HSV-2 = assay: In vitro activity, HSV-2 infected Vero cells; format: cell-based
Experimental: as §1

HSV-1 ACV resistant = assay: In vitro activity, HSV-1 ACV resistant; format: cell-based; settings: Human alphaherpesvirus 1
Experimental: as §1

HSV-1 [2] = assay: Second oHSV experiment (repeated virus injection): number of dead animals by day; format: in vivo, mice; settings: for Number of dead animals by day: n=10; for rescue of mice from virus-induced death: second experiment, multiple intratumoral HSV injections, 10 mg/kg po
Experimental: The methods of the first experiment were used and the experimental design was modified in the second experiment as follows: • 1. The oncolytic herpesvirus was, in contrast to the first experiment, injected multiple times at a constant dose at distinct intervals. • 2. In addition to Example 7(-) used in the first experiment, the efficacy of a series of helicase primase inhibitors was tested in the second experiment to enable the class of helicase primase inhibitors in general.
Pharmacological animal groups (10 animals per group, 80 animals in total and 5 animals per group in the satellite group; 50 animals in total used for analysis of plasma and tumor samples) were organized as such: • 1. Control virus-untreated group: test compound vehicle, oral gavage, once a day, for 2 days and starting 48 h after each virus injection time-point. • 2. Control virus vehicle-treated group: 100 μL of virus vehicle by intratumoral injection when tumors reached an average volume of ˜50 mm^3 (i.e. on day 11) then 2 injections spaced 5 days apart from each other; with test compound vehicle, oral gavage, once a day, for 2 days and starting 48 h after each virus injection time-point. • 3. HSV-1 (5×10^7 pfu)-treated group: 100 μL of HSV-1 (5×10^7) by intratumoral injection when tumors reached an average volume of ˜50 mm^3 (i.e. on day 11) then 2 injections spaced 5 days apart from each other; with test compound vehicle, oral gavage, once a day, for 2 days and starting 48 h after each virus injection time-point and with anti-PD-1 vehicle, intraperitoneal injection (100 μL PBS) on the same day as the virus injection, and then 3 administrations spaced 3 days apart from each other (days 11, 14, 17 and 20). • 4. HSV-1 (5×10^7 pfu)+anti-PD1-treated group: 100 μL of HSV-1 (5×10^7 pfu) intratumoral injection when tumors reached an average volume of ˜50 mm^3 (i.e. on day 11) then 2 injections spaced 5 days apart from each other; with test compound vehicle, oral gavage, once a day, for 2 days and starting 48 h after each virus injection time-point and with anti-PD-1 (5 mg/kg), intraperitoneal injection on the same day as the virus injection, and then 3 administrations spaced 3 days apart from each other (days 11, 14, 17 and 20). • 5. HSV-1 (5×10^7 pfu)-Example 10—treated group: 100 μL of HSV-1 (5×10^7 pfu) intratumoral injection when tumors reached an average volume of ˜50 mm^3 (i.e. on day 11) then 2 injections spaced 5 days apart from each other; with Example 10 (10 mg/kg), oral gavage, once a day, for 2 days and starting 48 h after each virus injection time-point (days 13, 14, 18, 19, 23 and 24). • 6. HSV-1 (5×10^7 pfu)-pritelivir-treated group: 100 μL of HSV-1 (5×10^7 pfu) intratumoral injection when tumors reached an average volume of ˜50 mm^3 (i.e. on day 11) then 2 injections spaced 5 days apart from each other; with pritelivir (10 mg/kg), oral gavage, once a day, for 2 days and starting 48 h after each virus injection time-point (days 13, 14, 18, 19, 23 and 24). • 7. HSV-1 (5×10^7 pfu)-amenamevir-treated group: 100 μL of HSV-1 (5×10^7 pfu) intratumoral injection when tumors reached an average volume of ˜5 0mm^3 (i.e. on day 11) then 2 injections spaced 5 days apart from each other; with amenamevir (10 mg/kg), oral gavage, once a day, for 2 days and starting 48 h after each virus injection time-point (days 13, 14, 18, 19, 23 and 24). • 8. HSV-1 (5×10^7 pfu)-Example 10+anti-PD1-treated group: 100 μL of HSV-1 (5×10^7 pfu) intratumoral injection when tumors reached an average volume of ˜50 mm^3 (i.e. on day 11) then 2 injections spaced 5 days apart from each other; with Example 10 (10 mg/kg), oral gavage, once a day, for 2 days and starting 48 h after each virus injection time-point (days 13, 14, 18, 19, 23 and 24) and with anti-PD-1 (5 mg/kg), intraperitoneal injection on the same day as the virus injection and then 3 administrations spaced 3 days apart each other (days 11, 14, 17 and 20). Results of the Second oHSV Experiment […]

[3] = described in WO2019/068817; cited from earlier work
carboanhydrase = settings: described in WO2019/068817; cited from earlier work

Compound: Cc1nc(N(C)C(=O)C2Cc3ccc(-c4cc(F)ccc4F)cc3C2)sc1S(N)(=O)=O (racemic) [Example 1, 5-(2,5-Difluorophenyl)-N-methyl-N-(4-methyl-5-sulfamoylthiazol-2-yl)-2,3-di-hydro-1H-indene-2-carboxamide]
- IC50 (HSV-1 [1]; Human alphaherpesvirus 1, Vero): 16 nM
- IC50 (HSV-2; Human alphaherpesvirus 2, Vero): 50 nM
- IC50 (HSV-1 ACV resistant): 16 nM

Compound: Cc1nc(N(C)C(=O)C2Cc3ccc(-c4cc(F)ccc4F)cc3C2)sc1S(C)(=N)=O (racemic) [Example 4, 5-(2,5-Difluorophenyl)-N-methyl-N-(4-methyl-5-(S-methylsulfonimidoyl)thiazol-2-yl)-2,3-dihydro-1H-indene-2-carboxamide]
- IC50 (HSV-1 [1]; Human alphaherpesvirus 1, Vero): 750 nM
- IC50 (HSV-2; Human alphaherpesvirus 2, Vero): 1500 nM
- IC50 (HSV-1 ACV resistant): 750 nM

Compound: Cc1nc(N(C)C(=O)C2Cc3ccc(-c4cc(F)ccc4F)cc3C2)sc1S(C)(=N)=O (single isomer, unassigned) [Example 5, 5-(2,5-Difluorophenyl)-N-methyl-N-(4-methyl-5-(S-methylsulfonimidoyl)thiazol-2-yl)-2,3-dihydro-1H-indene-2-carboxamide]
- IC50 (HSV-1 [1]): 20000 nM
- IC50 (HSV-2): 20000 nM

Compound: Cc1nc(N(C)C(=O)C2Cc3ccc(-c4cc(F)ccc4F)cc3C2)sc1S(C)(=N)=O (single isomer, unassigned) [Example 6, 5-(2,5-Difluorophenyl)-N-methyl-N-(4-methyl-5-(S-methylsulfonimidoyl)thiazol-2-yl)-2,3-dihydro-1H-indene-2-carboxamide]
- IC50 (HSV-1 [1]): 75 nM
- IC50 (HSV-2): 750 nM

Compound: Cc1nc(N(C)C(=O)C2Cc3ccc(-c4cc(F)ccc4F)cc3C2)sc1S(C)(=N)=O (single isomer, unassigned) [Example 8, 5-(2,5-Difluorophenyl)-N-methyl-N-(4-methyl-5-(S-methylsulfonimidoyl)thiazol-2-yl)-2,3-dihydro-1H-indene-2-carboxamide]
- IC50 (HSV-1 [1]): 175 nM
- IC50 (HSV-2): 1500 nM

Compound: Cc1nc(N(C)C(=O)C2Cc3ccc(-c4cc(F)ccc4F)cc3C2)sc1S(C)(=N)=O (single isomer, unassigned) [Example 9, 5-(2,5-Difluorophenyl)-N-methyl-N-(4-methyl-5-(S-methylsulfonimidoyl)thiazol-2-yl)-2,3-dihydro-1H-indene-2-carboxamide]
- IC50 (HSV-1 [1]): 10000 nM
- IC50 (HSV-2): 45000 nM

Compound: Cc1nc(N(C)C(=O)C2Cc3ccc(-c4cc(F)ccc4F)cc3C2)sc1S(N)(=O)=O (single isomer, unassigned; (+)) [Example 3, (+)-5-(2,5-difluorophenyl)-N-methyl-N-(4-methyl-5-sulfamoylthiazol-2-yl)-2,3-dihydro-1H-indene-2-carboxamide]
- IC50 (HSV-1 [1]): 0.5 nM
- IC50 (HSV-2): 16 nM

Compound: Cc1nc(N(C)C(=O)C2Cc3ccc(-c4cc(F)ccc4F)cc3C2)sc1S(N)(=O)=O (single isomer, unassigned; (-)) [Example 2, (−)-5-(2,5-Difluorophenyl)-N-methyl-N-(4-methyl-5-sulfamoylthiazol-2-yl)-2,3-dihydro-1H-indene-2-carboxamide]
- IC50 (HSV-1 [1]): 2000 nM
- IC50 (HSV-2): 16000 nM

Compound: Nc1nc2c(ncn2COCCO)c(=O)[nH]1 [Acyclovir, reference compound]
- IC50 (HSV-1 [1]; Human alphaherpesvirus 1, Vero): 500 to 3000 nM
- IC50 (HSV-2; Human alphaherpesvirus 2, Vero): 500 to 3000 nM
- IC50 (HSV-1 ACV resistant): > 25000 nM

Compound: Cc1nc(N(C)C(=O)Cc2ccc(-c3cc(F)ccc3F)cc2)sc1S(N)(=O)=O [Example 10, 2-(2′,5′-Difluoro-[1,1′-biphenyl]-4-yl)-N-methyl-N-(4-methyl-5-sulfamoylthiazol-2-yl)acetamide]
- Number of dead animals by day (HSV-1 [2]; day 7, HSV-1 5×10^7 pfu + Example 10 10 mg/kg po): 0
- Number of dead animals by day (HSV-1 [2]; day 7, HSV-1 5×10^7 pfu + anti-PD-1 5 mg/kg ip + Example 10 10 mg/kg po): 0
- Number of dead animals by day (HSV-1 [2]; day 9, HSV-1 5×10^7 pfu + Example 10 10 mg/kg po): 0
- Number of dead animals by day (HSV-1 [2]; day 9, HSV-1 5×10^7 pfu + anti-PD-1 5 mg/kg ip + Example 10 10 mg/kg po): 0
- Number of dead animals by day (HSV-1 [2]; day 11, HSV-1 5×10^7 pfu + Example 10 10 mg/kg po): 0
- Number of dead animals by day (HSV-1 [2]; day 11, HSV-1 5×10^7 pfu + anti-PD-1 5 mg/kg ip + Example 10 10 mg/kg po): 0
- Number of dead animals by day (HSV-1 [2]; day 14, HSV-1 5×10^7 pfu + Example 10 10 mg/kg po): 0
- Number of dead animals by day (HSV-1 [2]; day 14, HSV-1 5×10^7 pfu + anti-PD-1 5 mg/kg ip + Example 10 10 mg/kg po): 0
- Number of dead animals by day (HSV-1 [2]; day 16, HSV-1 5×10^7 pfu + Example 10 10 mg/kg po): 0
- Number of dead animals by day (HSV-1 [2]; day 16, HSV-1 5×10^7 pfu + anti-PD-1 5 mg/kg ip + Example 10 10 mg/kg po): 0
- Number of dead animals by day (HSV-1 [2]; day 18, HSV-1 5×10^7 pfu + Example 10 10 mg/kg po): 1
- Number of dead animals by day (HSV-1 [2]; day 18, HSV-1 5×10^7 pfu + anti-PD-1 5 mg/kg ip + Example 10 10 mg/kg po): 1
- Number of dead animals by day (HSV-1 [2]; day 21, HSV-1 5×10^7 pfu + Example 10 10 mg/kg po): 1
- Number of dead animals by day (HSV-1 [2]; day 21, HSV-1 5×10^7 pfu + anti-PD-1 5 mg/kg ip + Example 10 10 mg/kg po): 1
- rescue of mice from virus-induced death (HSV-1 [2]): the mice can be rescued

Compound: Cc1cccc(C)c1N(CC(=O)Nc1ccc(-c2ncon2)cc1)C(=O)C1CCS(=O)(=O)CC1 [amenamevir, Amenamevir]
- Number of dead animals by day (HSV-1 [2]; day 7, HSV-1 5×10^7 pfu + amenamevir 10 mg/kg po): 0
- Number of dead animals by day (HSV-1 [2]; day 9, HSV-1 5×10^7 pfu + amenamevir 10 mg/kg po): 0
- Number of dead animals by day (HSV-1 [2]; day 11, HSV-1 5×10^7 pfu + amenamevir 10 mg/kg po): 0
- Number of dead animals by day (HSV-1 [2]; day 14, HSV-1 5×10^7 pfu + amenamevir 10 mg/kg po): 0
- Number of dead animals by day (HSV-1 [2]; day 16, HSV-1 5×10^7 pfu + amenamevir 10 mg/kg po): 0
- Number of dead animals by day (HSV-1 [2]; day 18, HSV-1 5×10^7 pfu + amenamevir 10 mg/kg po): 2
- Number of dead animals by day (HSV-1 [2]; day 21, HSV-1 5×10^7 pfu + amenamevir 10 mg/kg po): 2
- rescue of mice from virus-induced death (HSV-1 [2]): the mice can be rescued

Compound: Cc1nc(N(C)C(=O)Cc2ccc(-c3cc(F)ccc3F)cc2)sc1[S@@](C)(=N)=O [drawing 1]
- brain penetration [3]: improved brain penetration
- off-target carboanhydrase activity (carboanhydrase): no off-target carboanhydrase activity

Compound: Cc1nc(N(C)C(=O)Cc2ccc(-c3ccccn3)cc2)sc1S(N)(=O)=O [pritelivir, Pritelivir]
- Number of dead animals by day (HSV-1 [2]; day 7, HSV-1 5×10^7 pfu + pritelivir 10 mg/kg po): 0
- Number of dead animals by day (HSV-1 [2]; day 9, HSV-1 5×10^7 pfu + pritelivir 10 mg/kg po): 0
- Number of dead animals by day (HSV-1 [2]; day 11, HSV-1 5×10^7 pfu + pritelivir 10 mg/kg po): 0
- Number of dead animals by day (HSV-1 [2]; day 14, HSV-1 5×10^7 pfu + pritelivir 10 mg/kg po): 0
- Number of dead animals by day (HSV-1 [2]; day 16, HSV-1 5×10^7 pfu + pritelivir 10 mg/kg po): 0
- Number of dead animals by day (HSV-1 [2]; day 18, HSV-1 5×10^7 pfu + pritelivir 10 mg/kg po): 0
- Number of dead animals by day (HSV-1 [2]; day 21, HSV-1 5×10^7 pfu + pritelivir 10 mg/kg po): 0
- rescue of mice from virus-induced death (HSV-1 [2]): the mice can be rescued

From patent publication US20240408068A1, “Helicase Primase Inhibitors For Treating Cancer In A Combination Therapy With Oncolytic Viruses” (priority 2018, published 2024)
